From patent US20100285959A1, “HERBICIDAL MIXTURES” (priority 2006, published 2010) come the findings set out here.

The test system of series [1] is Florida beggarweed (DEDTO). The series is described as follows: Test 12 field trial, preemergence. Set-up: scale not given here. Format: in vivo, Desmodium tortuosum. As to conditions: Cpd 2 or Cpd 1 62 g a.i./ha, Diuron 2000 g a.i./ha. From the text:
In early-mid spring season, corn seeds (hybrid ‘Pioneer 3041’) were planted 5 cm deep and sugarcane nodes (variety RB-72.454) were planted 10 cm deep in separate plots in a clay soil having 2.6% organic matter and a pH of 5.6. Plots were 24 m long by 1.5 m wide with rows spaced 80 cm (corn) or 140 cm (sugarcane) apart. Corn seeds were spaced 15 cm apart and sugarcane nodes were spaced 10 cm apart within the rows. At the same time, weed seeds were broadcast over the surface of separate plots without a crop, one weed species per plot. The weed plots were rotary tilled to incorporate the weed seeds to a variety of depths. The field was managed using conventional tillage practices.

The test system of another series is jimsonweed (DATST). Briefly: Test 7 field trial, preemergence. The format is in vivo, Datura stramonium. On the procedure:
Plots were 7.6 m long by 3.0 m wide with rows spaced 76 cm apart. Seeds were spaced 15 cm apart within the rows. The field was managed using conventional tillage practices. […] Wild radish was evaluated 14 and 28 days after application. […] Results are the means of the three replicates.

A further series relates to common chickweed (STEME). Briefly: Test 21 growth chamber, postemergence. Format: in vivo, Stellaria media. The conditions noted are these: 19 DAA. On the procedure:
(§1) A test was conducted to evaluate the effects on winter barley (HORVW, Hordeum vulgare L.), winter wheat (TRZAW, Triticum aestivum L.), and several weed species, of mixtures of Compound 2 with the commercial herbicide (2,4-dichlorophenoxy)acetic acid (2,4-D), an auxin mimic. […] Plants were treated postemergence at the 2-4 leaf growth stage, and each treatment was replicated one time. […] Plants were watered as needed. […] Results are from single replicates.

A further series relates to Canada horseweed (ERICA). The series is described as follows: Test 9 field trial, emerged weeds before corn planting. The conditions noted are these: g a.i./ha: Cpd 2 100, Glyphosate 1540, Paraquat 1150. Format: in vivo, Erigeron canadensis. The protocol: Corn seeds (hybrid ‘Pioneer 34M91 RR’) were planted in mid spring season, about 3.8 cm deep in a silty clay loam soil having a pH of 6.7. Plots were 9.1 m long by 3.0 m. The field was managed using no-till practices. […] Compound 2 and paraquat treatments, alone and in combination, also included a surfactant. Glyphosate, alone and with Compound 2, included ammonium sulfate in the treatment mixture. […] The effects on the weeds in the treated plots and untreated control plots were recorded 7, 14, 23, 30 and 57 days after application. Most of the weed species could not be evaluated at every timing. Corn response was only evaluated 57 days after application. […] Results are the means of the three replicates.

The next series has as its system winter wheat (TRZAW). Briefly: Test 19 growth chamber, postemergence. The format is in vivo, Triticum aestivum. The protocol: A test was conducted to evaluate the effects on winter barley (HORVW, Hordeum vulgare L.) and winter wheat (TRZAW, Triticum aestivum L.) of mixtures of Compound 2 with the commercial herbicide (2,4-dichlorophenoxy)acetic acid (2,4-D), an auxin mimic. […] Plants were treated postemergence at the 3-leaf growth stage, and each treatment was replicated four times. […] Plants were watered as needed. […] Results are the means of the four replicates.

The test system of a further series is corn (ZEAMD). Briefly: Test 2 field trial, preemergence. Format: in vivo, Zea mays ssp. indentata. The text has this: Corn seeds (hybrid ‘Pioneer 31G96’) were planted in mid spring season, 3.8 cm deep in a clay loam soil having 2% organic matter and a pH of 6.6. Plots were 6.1 m long by 3.0 m wide with rows spaced 76 cm apart. Seeds were spaced 15 cm apart within the rows. The field was managed using conventional tillage practices. […] A few of the weed species could not be evaluated at every timing. […] Results are the means of the three replicates.

The next series concerns wild mustard (SINAR). Briefly: Test 22 growth chamber, postemergence. Format: in vivo, Sinapis arvensis. The conditions noted are these: 25 DAA. On the procedure: A test was conducted to evaluate the effects on winter barley (HORVW, Hordeum vulgare L.), winter wheat (TRZAW, Triticum aestivum L.), and several weed species of mixtures of Compound 2 with the commercial herbicides (2,4-dichlorophenoxy)acetic acid (2,4-D) and (4-chloro-2-methylphenoxy)acetic acid (MCPA), auxin mimics. […] Plants were treated postemergence at the 2-4 leaf growth stage, except KCHSC, SASKR and STEME which were in the 4-8 leaf growth stage. Each treatment was replicated one time. […] Plants were watered as needed. […] Results are from single replicates.

For series [2], the system named is common lambsquarters (CHEAL). Briefly: Test 3 field trial, emerged weeds before corn planting. Format: in vivo, Chenopodium album. As to conditions: 68 DAA; Cpd 2 100, glyphosate 1540, paraquat 1150 g a.i./ha, alone or combined. The text has this: (§2) Corn seeds (hybrid ‘Pioneer 33J56’) were planted in early spring season, 3.8 cm deep in a silt loam soil having 2.4% organic matter and a pH of 6. Plots were 6.1 m long by 2.7 m wide with rows spaced 91.4 cm apart. The field was managed using no-till practices. […] Compound 2 and paraquat treatments, alone and in combination, also included a surfactant. Glyphosate, alone and with Compound 2, included ammonium sulfate in the treatment mixture. […] The effects on the weeds in the treated plots and untreated control plots were recorded 30, 42, 46 and 68 days after application. Most of the weed species could not be evaluated at every timing. Corn response was not evaluated because the growth was highly variable depending on the efficacy of the weed control treatments. […] Results are the means of the three replicates.

A further series concerns red deadnettle (LAMPU). The description is as above. Format: in vivo, Lamium purpureum. The conditions noted are these: Cpd 2 100, glyphosate 1540, paraquat 1150 g a.i./ha, alone or combined.
Excerpt: as §2

A further series concerns winter barley (HORVW). Briefly: Test 21 growth chamber, postemergence. Format: in vivo, Hordeum vulgare. The conditions noted are these: 19 DAA. On the procedure: as §1

Consider `Nc1nc(C2CC2)nc(C(=O)O)c1Cl` [Compound 1, 6-amino-5-chloro-2-cyclopropyl-4-pyrimidinecarboxylic acid], for which the “DEDTO Obs” value in series [1] (15 DAA) is recorded as 95; in series [1] (29 DAA) it was 75; in [1] (48 DAA), 60; in series [1] (61 DAA) it was 60.

In the case of `COC(=O)c1nc(C2CC2)nc(N)c1Cl` [Compound 2, methyl 6-amino-5-chloro-2-cyclopropyl-4-pyrimidinecarboxylate], the “DATST Obs” value in the series with jimsonweed (DATST) (14 DAA, 125 g a.i./ha) turned out to be 98%; in the series on jimsonweed (DATST) (14 DAA, 250 g a.i./ha), 98%; in the series with jimsonweed (DATST) (14 DAA, 500 g a.i./ha), 100%; in the series on jimsonweed (DATST) (28 DAA, 125 g a.i./ha), 98%; in the series with jimsonweed (DATST) (28 DAA, 250 g a.i./ha), 98%; in the series with jimsonweed (DATST) (28 DAA, 500 g a.i./ha), 100%. Also, the “DATST Obs” value worked out at 100% with jimsonweed (DATST) (62 DAA, 125 g a.i./ha) and 100% in the series on jimsonweed (DATST) (62 DAA, 500 g a.i./ha). Further, the “Postemergence STEME Obs” value in the series on common chickweed (STEME) (Cpd 2 alone 16 g a.i./ha) amounted to 65. The “ERICA Obs” value is 62% in the series with Canada horseweed (ERICA) (7 DAA); 68% in the series on Canada horseweed (ERICA) (14 DAA); 75% in the series with Canada horseweed (ERICA) (23 DAA); 83% with Canada horseweed (ERICA) (30 DAA); 100% in the series with Canada horseweed (ERICA) (57 DAA). Further, the “TRZAW Obs” value with winter wheat (TRZAW) (in vivo) was 43. Also, the “ZEAMD Obs” value in the series on corn (ZEAMD) (hybrid Pioneer 31G96, corn (Zea mays ssp. indentata), in vivo, 55 days after application) was determined as 0. The “Postemergence SINAR Obs” value with wild mustard (SINAR) (Cpd 2 alone 4 g a.i./ha) is 60; in the series on wild mustard (SINAR) (Cpd 2 alone 8 g a.i./ha), 65; in the series with wild mustard (SINAR) (Cpd 2 alone 16 g a.i./ha), 65. The “DEDTO Obs” value in series [1] (15 DAA) is given as 100; in series [1] (29 DAA), 70; in series [1] (48 DAA) it was 80; in series [1] (61 DAA) it was 60. In series [2], the “CHEAL Obs” value was 100%. The “LAMPU Obs” value with red deadnettle (LAMPU) (30 DAA) is listed as 87%; in the series with red deadnettle (LAMPU) (42 DAA), 35%; in the series with red deadnettle (LAMPU) (46 DAA), 100%. Besides, the “Postemergence HORVW Obs” value in the series on winter barley (HORVW) (Cpd 2 alone 16 g a.i./ha) came out at 30.

For `CCNc1nc(Cl)nc(NC(C)C)n1` [Atrazine, atrazine, reference compound], the “ZEAMD Obs” value with corn (ZEAMD) (18 DAA, g a.i./ha: Cpd 2 25, Atrazine 250) was 8; in the series with corn (ZEAMD) (18 DAA, g a.i./ha: Cpd 2 50, Atrazine 500) it was 5; in the series with corn (ZEAMD) (18 DAA, g a.i./ha: Cpd 2 75, Atrazine 750), 15; in the series with corn (ZEAMD) (18 DAA, g a.i./ha: Cpd 2 100, Atrazine 1000), 7; with corn (ZEAMD) (18 DAA, g a.i./ha: Cpd 2 150, Atrazine 1500) it was 5; in the series on corn (ZEAMD) (28 DAA, g a.i./ha: Cpd 2 25, Atrazine 250) it was 2. Moreover, the “ZEAMD Obs” value in the series with corn (ZEAMD) (28 DAA, g a.i./ha: Cpd 2 50, Atrazine 500) amounted to 7; in the series on corn (ZEAMD) (28 DAA, g a.i./ha: Cpd 2 75, Atrazine 750), 12; in the series with corn (ZEAMD) (28 DAA, g a.i./ha: Cpd 2 100, Atrazine 1000), 8; in the series with corn (ZEAMD) (28 DAA, g a.i./ha: Cpd 2 150, Atrazine 1500), 3; in the series with corn (ZEAMD) (55 DAA, g a.i./ha: Cpd 2 25, Atrazine 250), 0; with corn (ZEAMD) (55 DAA, g a.i./ha: Cpd 2 50, Atrazine 500) it was 0. Moreover, the “ZEAMD Obs” value came to 0 with corn (ZEAMD) (55 DAA, g a.i./ha: Cpd 2 75, Atrazine 750); 0 with corn (ZEAMD) (55 DAA, g a.i./ha: Cpd 2 100, Atrazine 1000); 0 in the series on corn (ZEAMD) (55 DAA, g a.i./ha: Cpd 2 150, Atrazine 1500).

Turning to `CCc1cccc(C)c1N(C(=O)CCl)[C@@H](C)COC` [S-Metolachlor, S-metolachlor, reference compound], the “DATST Obs” value was 65% in the series on jimsonweed (DATST) (14 DAA, 1000 g a.i./ha); 57% in the series on jimsonweed (DATST) (28 DAA, 1000 g a.i./ha); 0% with jimsonweed (DATST) (62 DAA, 1000 g a.i./ha).

With `O=C(O)COc1ccc(Cl)cc1Cl` [2,4-D, (2,4-dichlorophenoxy)acetic acid], the “Postemergence STEME Obs” value with common chickweed (STEME) (2,4-D alone 125 g a.i./ha) and with common chickweed (STEME) (2,4-D alone 250 g a.i./ha) was 50 each time. Besides, the “TRZAW Obs” value was found to be 23 with winter wheat (TRZAW) (Postemergence, 17 DAA, g a.i./ha: Cpd 2 16, 2,4-D 250); 23 with winter wheat (TRZAW) (Postemergence, 17 DAA, g a.i./ha: Cpd 2 16, 2,4-D 500); 25 with winter wheat (TRZAW) (Postemergence, 17 DAA, g a.i./ha: Cpd 2 16, 2,4-D 1000). Besides, the “Postemergence SINAR Obs” value in the series on wild mustard (SINAR) (2,4-D or MCPA alone 250 g a.i./ha) is listed as 75. Also, the “Postemergence HORVW Obs” value in the series on winter barley (HORVW) (2,4-D alone 125 g a.i./ha) and with winter barley (HORVW) (2,4-D alone 250 g a.i./ha) was 25 in each case.

In the case of `O=C(O)CNCP(=O)(O)O` [Glyphosate], the “ERICA Obs” value is 45% in the series on Canada horseweed (ERICA) (7 DAA); 76% in the series with Canada horseweed (ERICA) (14 DAA); 98% in the series on Canada horseweed (ERICA) (23 DAA); 100% in the series with Canada horseweed (ERICA) (30 DAA); 84% in the series with Canada horseweed (ERICA) (57 DAA). In series [2], the “CHEAL Obs” value was 0%. For the same compound, the “LAMPU Obs” value with red deadnettle (LAMPU) (30 DAA) amounted to 70%; with red deadnettle (LAMPU) (42 DAA) it was 52%; in the series with red deadnettle (LAMPU) (46 DAA) it was 97%.
